From US10787650B2, “Artificial bioluminescent enzymes” (NATIONAL INSTITUTE OF ADVANCED INDUSTRIAL SCIENCE AND …, priority 2015, dated 2020)
Residue numbers refer to the chain shown, from its start. Entries after “also recorded” stand apart in the source; their conditions may differ. Each block holds one molecule with its values, some of them ahead of it.

Assays:
[1] = biological target: TPv2.4 (Homo sapiens, UniProt P42345); details: for bioluminescence intensity with TPv2.4: lysate of rapamycin-stimulated COS-7 cells, substrate 0.1 μg/μL; for luminescence intensity sustainability: compared with native coelenterazine
Sequence of TPv2.4 (P42345 with tags, fused parts or gaps): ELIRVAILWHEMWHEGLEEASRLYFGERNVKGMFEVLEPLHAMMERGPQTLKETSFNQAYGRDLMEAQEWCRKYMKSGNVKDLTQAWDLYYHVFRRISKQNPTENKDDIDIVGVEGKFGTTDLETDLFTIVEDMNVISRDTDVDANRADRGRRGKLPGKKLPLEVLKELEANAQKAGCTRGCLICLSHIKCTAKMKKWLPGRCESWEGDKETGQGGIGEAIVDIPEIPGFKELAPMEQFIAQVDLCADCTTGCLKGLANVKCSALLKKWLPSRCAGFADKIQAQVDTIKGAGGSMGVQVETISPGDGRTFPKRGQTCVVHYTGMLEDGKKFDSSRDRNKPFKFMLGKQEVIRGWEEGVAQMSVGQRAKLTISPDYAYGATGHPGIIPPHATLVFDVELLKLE
Protocol: COS-7 cells were cultured in a 96-well plate, and the cells were transiently transfected with the pcDNA3.1(+) vector encoding TP2.4. After that, the cells were cultured for 2 days. After being stimulated with 10^−6 M rapamycin for 4 hours, the cells in each well were lysed with a cell lysis buffer (50 μl) for 20 minutes. After that, an aliquot of the lysate (10 μL) was transferred to a 96-well transparent-bottom plate. Separately, about 10 kinds of coelenterazine analogs (substrates, 25 μg) were dissolved in 25 μL of ethanol. The solution was further 10-fold diluted with an assay buffer (Promega) to prepare a solution having a final concentration of 0.1 μg/μL. The solution was named substrate solution. 50 μL of the substrate solution was simultaneously introduced into the lysate solution on the plate using a multipipette, and the plate was immediately moved into an image analyzer (LAS-4000, FujiFilm), followed by optical measurement every 5 minutes in a 30-second integration time mode.
The coelenterazine analogs subjected to the measurement in this research were 9 kinds from “Coelenterazine Sampler Kit” of Promokine, i.e., native coelenterazine (nCTZ), coelenterazine h (CTZ h), coelenterazine f (CTZ f), coelenterazine i (CTZ i), coelenterazine n (CTZ n), coelenterazine cp (CTZ-cp), coelenterazine hcp (CTZ hcp), coelenterazine fcp (CTZ fcp), and coelenterazine ip (CTZ ip).

[2] = biological target: OLuc (Oplophorus gracilirostris, UniProt Q9GV45); details: cited from earlier work
Sequence of OLuc (Q9GV45 28-196): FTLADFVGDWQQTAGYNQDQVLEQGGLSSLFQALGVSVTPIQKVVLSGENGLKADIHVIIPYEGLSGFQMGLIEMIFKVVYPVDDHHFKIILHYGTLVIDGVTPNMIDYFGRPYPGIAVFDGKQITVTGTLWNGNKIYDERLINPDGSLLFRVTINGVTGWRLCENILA

[3] = tested on: ALuc16; test: Metal cation-driven optical intensities of ALuc16 (purified enzyme); assay type: biochemical
Protocol: The metal cation-driven optical properties were estimated with ALuc16 (FIG. 6). A metal cation-free sample of ALuc16 was prepared beforehand as follows: we first generated a DNA construct of ALuc16 carrying a Strep-II tag at the C-terminus via PCR. The construct was then cloned into a pOPTHM vector (providing a cleavable N-terminal His6-MBP tag), and expressed in the bacterial strain Shuffle T7 Express (New England Biolabs) with 0.3 mM IPTG induction. […] The lysate was centrifuged at 18,000 rpm for 40 minutes, and then the supernatant was passed over a 5 mL HisTrap HP column (GE Healthcare). […] The eluted sample was dialyzed to a metal-cation-free Tris-HCl buffer (0.05 M, pH 8.2) at 4° C. for 24 hours, and finally adjusted to a concentration of 1 mg/ml by dilution. […] Meanwhile, the corresponding substrate solution carrying nCTZ (Promega) was diluted 100-fold with the cation-free Tris-HCl buffer (Solution B). 50 μL of Solution B was simultaneously injected into Solution A in the 96-well plate with a multichannel micropipette (Gilson). The microplate was immediately moved to an image analyzer (LAS-4000, FujiFilm) equipped with a cooled charge-coupled device (CCD) camera, and the optical intensities were simultaneously estimated in a precision mode. The measurements were conducted in triplicate (n=3). The optical images were analyzed with Multi Gauge V3.2 (FujiFilm). […] The experiment was conducted by the same method as that of FIG. 6. In the inset, the optical image taken with LAS-4000 (FujiFilm) is shown.

[4] = tested on: ALuc16; test: Circular dichroism (CD) measurement of metal cation-mixed ALuc16; details: for effect on structure of ALuc16 (CD spectra, 222 nm): varying cation concentrations
Protocol: Circular dichroism (CD) measurement was further conducted for reasoning the cation-driven degradation of ALuc16 activities (FIG. 9). Samples were prepared by mixing varying concentrations of Pb(II) or Al(III) with column-purified and dialyzed ALuc16, and were measured with a CD spectrometer (JASCO, Japan) after preparation.

[5] = tested on: ALuc16; test: Metal cation-driven variance of bioluminescence spectra of ALuc16; assay type: biochemical; details: 100 μg/mL cation
Protocol: The corresponding bioluminescence spectra (FIG. 6(B)) were also measured using the same method as that of FIG. 6(A). In a 200 μL PCR tube, 50 μL of the mixture of ALuc16 and a metal cation (Ca(II), Fe(III), Ni(II), Zn(II), Mg(II), or Cr(VI); concentration: 100 μg/mL) in the metal-cation-free Tris-HCl buffer (Solution A) was further mixed with 10 μL of an nCTZ solution (Solution B). The tube was immediately moved into the chamber of a precision spectrophotometer (AB-1850, ATTO) (FIG. 6(B)), and the consequent spectra were taken in an integration of 30 seconds.

[6] = tested on: Fridericia luciferase; details: cited from earlier work
[7] = tested on: ALuc16; test: Cation-driven long-term stability of optical intensities of ALuc16; assay type: biochemical; details: 60 minutes after substrate injection
Protocol: The long-term stability of optical intensities was estimated by the same method as that of FIG. 6(A) (FIG. 8(A)). The microplate was placed in the chamber of LAS-4000, and the optical intensities were monitored every 5 minutes, after substrate injection, for a duration of 60 minutes.

[8] = Luminescence activity of novel artificial bioluminescent enzymes (COS-7 cell lysate); assay type: biochemical, African green monkey; details: COS-7 lysate, native coelenterazine
Protocol: African green monkey kidney-derived COS-7 cells were cultured using a 96-well microplate. The COS-7 cells were grown until occupying 90% of the bottom-surface area of the culture plate, and, as shown in FIG. 19 and FIG. 20, were each transiently transfected with a pcDNA 3.1(+) vector (Invitrogen) encoding each luminescent enzyme with a lipofection reagent (TransIT-LT1, Mirus). After that, the cells were further cultured for about 1 day. After the culture, cell lysates were prepared using a cell lysis agent (Lysis buffer, Promega), and 5 μL each of the cell lysates was taken from each well and transferred to a 96-well microplate for measurement. An assay buffer (50 μL) containing native coelenterazine was simultaneously added to each well using a multichannel pipette. Immediately after the addition of the assay buffer, the microplate was moved into the black box of an image analyzer (LAS-4000, FujiFilm), and luminescence images were measured with a CCD camera (FIG. 19 and FIG. 20).

[9] = Proton-dependent optical intensities and optical stability of ALucs (COS-7 cell lysate); assay type: biochemical, African green monkey; details: for elevation of optical intensities at pH 7 as compared to pH 6: COS-7 lysate, nCTZ; for intensities as share of the initial intensities 20 minutes after substrate injection: pH 9, coelenterazine analog
Protocol: The proton-driven optical intensities of ALucs were calculated to help elucidate the proton-bioluminescence relationship (FIG. 4). […] The cells were cultured and lysed by the same method as that of FIG. 2(B). Then, 10 μL of the lysates in the plate were simultaneously mixed with 40 µL of the substrate solution, which was prepared by mixing a native coelenterazine (nCTZ) stock (FIG. 4(B)) with an aliquot of the universal buffer with the pH ranging from 4 to 9 (final concentration of the substrate: 0.1 mg/ml). Immediately after the substrate injection, the plate was moved into an image analyzer (LAS-4000, FujiFilm), and relative optical intensities were integrated for 30 seconds. The time course of the intensities was estimated every 5 minutes for 20 minutes (FIG. 4(D)).

[10] = metal cation-free Tris-HCl buffer (pH 8.2, 0.05 M), nCTZ

bioluminescence intensity with TPv2.4 [1]: strongest bioluminescence intensities
Molecule: native coelenterazine [nCTZ]

Molecule: [Cl][Cu][Cl] [Cu(II)]
effect on optical intensity of OLuc [2]: inhibited the optical intensity
effect on optical intensities (activities) of ALuc16 [3, 10]: suppress

Molecule: [Cl][Al]([Cl])[Cl] [Al(III)]
effect on structure of ALuc16 (CD spectra, 222 nm) [4]: α-helical portion is gradually decreased; also recorded: destroy the tertiary structure of ALuc16; also recorded: the structure of ALuc16 is denatured

effect on optical intensities (activities) of ALuc16 [3, 10]: little effect
Molecule: [K+] [K^+]

Molecule: [Cl][Ni][Cl] [Ni(II)]
red shift of the bioluminescence spectrum [5]: 4 nm

bioluminescence intensity with TPv2.4 [1]: strongest bioluminescence intensities
Molecule: coelenterazine f [CTZ f]

effect on optical intensities (activities) of ALuc16 [3, 10]: little effect
Molecule: [Li+] [Li^+]

initial luminescence intensity retained ([1]; 20 minutes after substrate injection): about 60%
Molecule: coelenterazine n [CTZ n]
luminescence intensity sustainability [1]: longer than that of native coelenterazine

bioluminescence intensity with TPv2.4 [1]: weak luminescence intensities
Molecule: coelenterazine ip [CTZ ip]

Molecule: [Cl-].[Cl-].[Zn+2] [Zn(II)]
effect on optical intensity of OLuc [2]: inhibited the optical intensity
effect on optical intensities (activities) of ALuc16 [3, 10]: suppress

luminescence half-life from substrate injection [1]: about 15 minutes
Molecule: O=c1c(Cc2ccc(I)cc2)nc2c(Cc3ccccc3)[nH]c(-c3ccc(O)cc3)cn1-2 [CTZ i, coelenterazine i]
luminescence intensity sustainability [1]: longer than that of native coelenterazine

bioluminescence intensity with TPv2.4 [1]: weak luminescence intensities
Molecule: Oc1ccc(-c2cn3c(O)c(Cc4ccc(F)cc4)nc3c(CC3CCCC3)n2)cc1 [CTZ fcp, coelenterazine fcp]

Molecule: [Cl][Pb][Cl] [Pb(II)]
concentration by which the optical intensity was quickly decreased ([3]; Tris-HCl, pH 8.2): 1 µg/mL
detection limit ([3]; dose-response of ALuc16 activities): around 0.4 μg/mL
effect on optical intensities (activities) of ALuc16 [3, 10]: suppress; also recorded: quickly inhibited
levels that showed basal noise CD spectra [4]: higher than 1 μg/mL
effect on structure of ALuc16 (CD spectra, 222 nm) [4]: destroy the tertiary structure of ALuc16; also recorded: the structure of ALuc16 is denatured

Molecule: [Cl-].[Cl-].[Mg+2] [Mg(II)]
effect on activities of Fridericia luciferase [6]: elevate
effect on long-term stability of bioluminescence intensities [7]: seldom influences the long-term stability

bioluminescence intensity with TPv2.4 [1]: weak luminescence intensities
Molecule: Oc1ccc(Cc2nc3c(CC4CCCC4)nc(-c4ccc(O)cc4)cn3c2O)cc1 [CTZ cp, coelenterazine cp]

effect on optical intensities (activities) of ALuc16 [3, 10]: little effect
Molecule: N [NH4^+]

Molecule: Cr(VI)
elevation of ALuc16 activities / optical intensities [3, 10]: about 2 times

effect on optical intensities (activities) of ALuc16 [3, 10]: suppress
Molecule: [Cl-].[Cl-].[Co+2] [Co(II)]

Molecule: [Cl][Cd][Cl] [Cd(II)]
effect on optical intensity of OLuc [2]: inhibited the optical intensity

bioluminescence intensity with TPv2.4 [1]: strongest bioluminescence intensities
Molecule: coelenterazine h [CTZ h]

Molecule: [Cl][Mn][Cl] [Mn(II)]
effect on activities of Fridericia luciferase [6]: elevate
effect on optical intensities (activities) of ALuc16 [3, 10]: boosting effect with Mn(II) was not observed

effect on optical intensities (activities) of ALuc16 [3, 10]: little effect
Molecule: [Na+] [Na^+]

bioluminescence intensity with TPv2.4 [1]: weak luminescence intensities
Molecule: Oc1ccc(-c2cn3c(O)c(Cc4ccccc4)nc3c(CC3CCCC3)n2)cc1 [CTZ hcp, coelenterazine hcp]

B1: ALuc49: artificial luciferase, SEQ ID NO: 9 (protein)
chain: MMGIKVLFALVCLALVQAKPTEDEDEDDIVDVVGNFWAIGVDNDRDFTISADRGKLPGKKLPKEVLIEIEANAKKAGCTRGCLICLSKIKCTAKMKKWLPGRCHSYEGDKDTGQGGIGEPIVDAPEIPGFKDLTPMEQFIAQVDLCADCTTGCLKGLANVKCSALLKKWLPDRCASFADKIQKEVDYIKGLAGS
luminescence intensities as compared to conventional ALucs (e.g., ALuc16 and ALuc30) [8]: even stronger luminescence intensities

B2: ALuc50: artificial luciferase, SEQ ID NO: 10 (protein)
chain: B1 chain with Y187F
luminescence intensities as compared to conventional ALucs (e.g., ALuc16 and ALuc30) [8]: even stronger luminescence intensities

B3: ALuc46: artificial luciferase, SEQ ID NO: 6 (protein)
chain: B1 chain with K183S, D186A, Y187T
luminescence intensities as compared to conventional ALucs (e.g., ALuc16 and ALuc30) [8]: relatively low luminescence intensities

B4: ALuc47: artificial luciferase, SEQ ID NO: 7 (protein)
chain: B1 chain with D186G, Y187T, A192L
luminescence intensities as compared to conventional ALucs (e.g., ALuc16 and ALuc30) [8]: relatively low luminescence intensities

B5: ALuc41: artificial luciferase, SEQ ID NO: 2 (protein)
chain: B1 chain with Y187T
luminescence intensities as compared to conventional ALucs (e.g., ALuc16 and ALuc30) [8]: relatively low luminescence intensities

B6: ALuc23: conventional artificial luciferase from the inventor's previous research, SEQ ID NO: 32 (protein)
chain: MMGIKVLFALICFALVQANPTENKDDIDIVGVEGKFGTTDLETDLFTIVEDMNVISRDTDVDANRADRGRRGKLPGKKLPLEVLKELEANAQKAGCTRGCLICLSHIKCTAKMKKWLPGRCESWEGDKETGQGGIGEAIVDIPEIPGFKELAPMEQFIAQVDLCADCTTGCLKGLANVKCSALLKKWLPSRCAGFADKIQAQVDTIKGAGGS
modifications: Synthetic Sequence - ALuc23
elevation of optical intensities at pH 7 as compared to pH 6 [9]: about 5 fold
intensities as share of the initial intensities 20 minutes after substrate injection [9]: 41%

B7: ALuc34: conventional artificial luciferase, SEQ ID NO: 35 (protein)
chain: B6 chain with P20M, T21M, E22D, N23Y, I27D, I29K
modifications: Synthetic Sequence - ALuc34
elevation of optical intensities at pH 7 as compared to pH 6 [9]: about 5 fold
intensities as share of the initial intensities 20 minutes after substrate injection [9]: 60%
